Where no end group is shown, it is not given here.
Key:
HLA-A2402 = target: T1, HLA-A2402 (Homo sapiens, UniProt P04439, D101N/D140Y/D185E/E176V/E190D/F33S/G103R/G107R/I119L/I121M/I306V/K335N/L105A/L180Q/L300P/N151K/N90K/Q86E/Q94H/R106L/R138H/R89G/T104I/T345S/V100E/W191G/Y123F); test: in vitro folding of recombinant HLA-A2402 with beta2-microglobulin and peptide (tetramer production); type: binding; conditions: recombinant HLA-A2402 folded in vitro with beta2-microglobulin and peptide
T1 construct: made in house; host or cells: E. coli
Description: (§1) Recombinant HLA-A2402 molecules produced in E. coli were folded in vitro with beta2-microglobulin and peptide NYKRCFPVI (SEQ ID NO: 1) from MAGE-4, or peptide LYVDSLFFL (SEQ. ID NO: 2) from PRAME (control) (See Ikeda, et al., Immunity 6:199-208 (1997)), in accordance with Altman, et al., Science 274:94-96 (1996). The peptide of SEQ ID NO: 1 corresponds to amino acids 143-151 of MAGE-4. This specific peptide was selected because it is homologous to the peptide NYKHCFPEI (SEQ ID NO: 3), a MAGE-1 encoded peptide previously shown to be recognized by HLA-A24 restricted T cells. See Fujie, et al., Int. J. Cancer 80(2):169-172 (1999).
The HLA-peptide complexes were then purified by gel filtration, biotinylated and mixed as described in Altman, et al., supra with extraviden-phycoerythrin (PE) for the HLA-A24/MAGE-4 tetramer, or streptavidin-APC for the PRAME control tetramer. Both extravidin-PE and streptavidin-APC are commercially available. The tetramers were then used to label T cells, as described in the next example.

[1] = test system: HLA-A24+ Epstein Barr Virus-transformed B (EBV-B) cells; test: chromium release assay, CTL 13 against peptide pulsed EBV-B cells; type: cell-based
Description: In this experiment, CTL 13 was tested for specific lytic activity in standard chromium release assays.
In the assay, the targets of CTL 13 were HLA-A24^+ Epstein Barr Virus-transformed B (EBV-B) cells. The EBV-B cells were cultured in IMDM supplemented with 10% fetal calf serum, 0.24 mM L-asparagine, 0.55 mM L-arginine, AAG, 100 U/ml penicillin and 100 μg/ml streptomycin. The EBV-B cells were labeled with ^51Cr for one hour according to standard methods and then incubated for 5 minutes with peptide NYKRCFPVI (SEQ ID NO: 1) (1 μg/ml). The ^51Cr labeled, peptide pulsed EBV-B cells (targets) were then combined with CTL 13 (effector) at effector-to-target ratios shown in FIG. 3A. Chromium release was measured after 4 hours.
In further experiments, the HLA-A24 EBV-B cells were labeled with ^51Cr for one hour according to standard methods and then incubated for 15 minutes with threefold dilutions of the synthetic peptide NYKRCFPVI (SEQ ID NO: 1). CTL 13 was subsequently added at an effector-to-target ratio of 10:1 and chromium release was measured after 4 hours. The concentration of peptide shown in FIG. 3B corresponds to the concentrations during the 4 hour incubation. […] This is in the range of concentration observed for the previously identified antigenic MAGE peptides, for which values ranging from 0.05 to 200 nM have been observed. […]

[2] = target: Recombinant HLA-A2402 molecules produced in E. coli, folded with beta2-microglobulin (human); test: in vitro folding of recombinant HLA-A2402 with beta2-microglobulin and peptide
Description: as §1, with “NYKRCFPVI” left out, “LYVDSLFFL” left out, “NYKHCFPEI” left out

binding result [2]	Molecule	formation of HLA-A2402/peptide complexes (HLA-A2402)	EC50 ([1]; CTL 13, effector-to-target ratio 10:1, chromium release after 4 hours, read-out: peptide concentration giving half maximal lysis of peptide pulsed HLA-A24 target cells)	lysis of peptide pulsed target cells by CTL 13 ([1]; peptide 1 μg/ml, 5 minutes pulse, chromium release after 4 hours, unpulsed control targets not lysed)
	NYKRCFPVI [SEQ ID NO: 1, NYKRCFPVI]	successful production of HLA-A2402 and SEQ ID NO: 1 peptide complexes	8 nM	lysed target cells pulsed with SEQ ID NO: 1 peptide
binds	NYKRCFPVI (Synthetic 9-mer; also called MAGE-4 antigenic peptide; MAGE-4.A24 peptide) [peptide NYKRCFPVI (SEQ ID NO: 1) from MAGE-4]			

Reference: patent US20050249743A1, “Isolated peptides which bind to HLA-A24 molecules and uses thereof” (priority 2004, published 2005)
